The text below walks through data of patent US12077503B2, “Substituted cyclic amides and their use as herbicides” (FMC CORPORATION, priority 2015, dated 2024).

What all share (format): in vivo
The test system of assay [1] is giant foxtail (Setaria faberii). Description: Test A preemergence. To be noted: Setaria faberi, pre-emergence, 240 h; for pest or weed control at 125 g/ha: 125 g ai/ha; for pest or weed control at 500 g/ha: 500 g ai/ha. The gist of the method:
(§1)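 Compounds were formulated in a non-phytotoxic solvent mixture with surfactant and applied as a preemergence directed soil spray after seeding, or sprayed postemergence over plants 2 to 10 cm tall at the one- to two-leaf stage. Evaluation after about 10 d compared treated with untreated controls, using a scale from 0 (no effect) to 100 (complete control).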

The subject of assay [2] is ryegrass, Italian (Italian ryegrass, Lolium multiflorum). Description: Test A preemergence. To be noted: Lolium multiflorum, pre-emergence, 240 h; for pest or weed control at 125 g/ha: 125 g ai/ha; for pest or weed control at 500 g/ha: 500 g ai/ha. An outline of the steps: as §1
Assay [3] concerns pigweed (Amaranthus retroflexus). The assay can be described thus: Test A preemergence. To be noted: Amaranthus retroflexus, pre-emergence, 240 h; for pest or weed control at 125 g/ha: 125 g ai/ha; for pest or weed control at 500 g/ha: 500 g ai/ha.
Assay [4] deals with ragweed (common ragweed, Ambrosia elatior). Description: Test A preemergence. To be noted: Ambrosia artemisiifolia, pre-emergence, 240 h; for pest or weed control at 125 g/ha: 125 g ai/ha; for pest or weed control at 500 g/ha: 500 g ai/ha. An outline of the steps:
as §1

The test system of assay [5] is barnyardgrass (Echinochloa crus-galli). Description: Test A preemergence. To be noted: Echinochloa crus-galli, pre-emergence, 240 h; for pest or weed control at 125 g/ha: 125 g ai/ha; for pest or weed control at 500 g/ha: 500 g ai/ha. The gist of the method: as §1
In a further assay the test system is Kochia (Kochia scoparia). The assay can be described thus: Test A preemergence. To be noted: Bassia scoparia, pre-emergence, 240 h; for pest or weed control at 125 g/ha: 125 g ai/ha; for pest or weed control at 500 g/ha: 500 g ai/ha. An outline of the steps:
as §1

Another assay has as its system rice (Oryra sativa). The assay can be described thus: Test B flooded paddy test. To be noted: Oryza sativa, Flood, 250 g ai/ha; scale of 0 to 100 where 0 is no effect and 100 is complete control; read-out: Rice plant response rating. The gist of the method: (§2)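 Flooding to 3 cm over soil accompanied treatment, which consisted of adding compound to the standing water around 2-leaf plants; depth was then maintained. Visual assessment versus controls followed at 13 to 15 d (scale 0–100, 0 meaning no effect).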

Assay [6] deals with ducksalad (Heteranthera limosa). Description: Test B flooded paddy test. To be noted: Heteranthera limosa, Flood, 250 g ai/ha; scale of 0 to 100 where 0 is no effect and 100 is complete control; read-out: Ducksalad plant response rating. An outline of the steps:
as §2

In assay [7] the test system is barnyardgrass (Echinochloa crus-galli). Description: Test B flooded paddy test. To be noted: Echinochloa crus-galli, Flood, 250 g ai/ha; scale of 0 to 100 where 0 is no effect and 100 is complete control; read-out: Barnyardgrass plant response rating. An outline of the steps: as §2
Assay [8] relates to sedge, umbrella (small-flower umbrella sedge, Cyperus difformis). The assay can be described thus: Test B flooded paddy test. To be noted: Cyperus difformis, Flood, 250 g ai/ha, read-out: Sedge, Umbrella plant response rating. An outline of the steps:
as §2

Assay [9] concerns Galium (catchweed bedstraw, Galium aparine). Description: Test A postemergence. To be noted: Galium, post-emergence, 240 h, 125 g ai/ha. The gist of the method:
as §1

The next assay relates to corn (Zea mays). Description: Test A postemergence. To be noted: Zea mays, post-emergence, 240 h, 125 g ai/ha. The gist of the method:
as §1

The test system of assay [10] is ragweed (common ragweed, Ambrosia elatior). The assay can be described thus: Test A postemergence. To be noted: Ambrosia artemisiifolia, post-emergence, 240 h, 125 g ai/ha. An outline of the steps:
as §1

Assay [11] relates to barnyardgrass (Echinochloa crus-galli). The assay can be described thus: Test A postemergence. To be noted: Echinochloa crus-galli, post-emergence, 240 h, 125 g ai/ha. The gist of the method:
as §1

Like-named read-outs stand apart in the source and are kept apart here.

`COc1cccc(C2CN(C)C(=O)C2C(=O)Nc2cccc(F)c2F)c1` (stereo not shown) [Compound 886]: the pest or weed control at 125 g/ha in [1] (preemergence, 0 to 100 scale where 0 is no effect and 100 is complete control, read-out: Foxtail, Giant plant response rating) came out at 90%; in assay [2] (preemergence, 0 to 100 scale where 0 is no effect and 100 is complete control, read-out: Ryegrass, Italian plant response rating), 0%; in assay [3] (preemergence, 0 to 100 scale where 0 is no effect and 100 is complete control, read-out: Pigweed plant response rating) it was 0%; in assay [4] (preemergence, 0 to 100 scale where 0 is no effect and 100 is complete control, read-out: Ragweed plant response rating), 0%; in assay [5] (preemergence, 0 to 100 scale where 0 is no effect and 100 is complete control, read-out: Barnyardgrass plant response rating), 90%; in the assay on Kochia (Kochia scoparia) (preemergence, 0 to 100 scale where 0 is no effect and 100 is complete control, read-out: Kochia plant response rating), 80%. The pest or weed control at 125 g/ha in assay [9] (postemergence, visual injury rating after approximately 10 d, read-out: Galium plant response rating (0 to 100 scale, 0 no effect, 100 complete control)) was 0%; in [10] (postemergence, visual injury rating after approximately 10 d, read-out: Ragweed plant response rating (0 to 100 scale, 0 no effect, 100 complete control)), 0%; in [11] (postemergence, visual injury rating after approximately 10 d, read-out: Barnyardgrass plant response rating (0 to 100 scale, 0 no effect, 100 complete control)) it was 90%. Besides, the pest or weed control at 500 g/ha was found to be 100% in [1] (Preemergence, visual injury vs untreated controls after approximately 10 d, read-out: Foxtail, Giant plant response rating (0 to 100 scale where 0 is no effect and 100 is complete control)); 60% in assay [2] (Preemergence, visual injury vs untreated controls after approximately 10 d, read-out: Ryegrass, Italian plant response rating (0 to 100 scale where 0 is no effect and 100 is complete control)); 0% in assay [3] (Preemergence, visual injury vs untreated controls after approximately 10 d, read-out: Pigweed plant response rating (0 to 100 scale where 0 is no effect and 100 is complete control)); 50% in [4] (Preemergence, visual injury vs untreated controls after approximately 10 d, read-out: Ragweed plant response rating (0 to 100 scale where 0 is no effect and 100 is complete control)); 90% in [5] (Preemergence, visual injury vs untreated controls after approximately 10 d, read-out: Barnyardgrass plant response rating (0 to 100 scale where 0 is no effect and 100 is complete control)); 90% in the assay on Kochia (Kochia scoparia) (Preemergence, visual injury vs untreated controls after approximately 10 d, read-out: Kochia plant response rating (0 to 100 scale where 0 is no effect and 100 is complete control)). The pest or weed control at 250 g/ha in the assay on rice (Oryra sativa) turned out to be 0%; in [6] it was 50%; in assay [7], 75%; in assay [8] (scale of 0 to 100 where 0 is no effect and 100 is complete control), 0%. Moreover, the plant injury at 125 g/ha in the assay on corn (Zea mays) (postemergence, visual injury rating after approximately 10 d, read-out: Corn plant response rating (0 to 100 scale, 0 no effect, 100 complete control)) was 40%.

As for `CN1C[C@H](c2cc(F)cc(C(F)(F)F)c2)[C@@H](C(=O)Nc2ccc(F)c(F)c2F)C1=O` [Compound 993], the pest or weed control at 125 g/ha worked out at 90% in assay [1] (Preemergence, visual injury rating after approximately 10 d, read-out: Foxtail, Giant plant response rating (0 to 100 scale, 0 is no effect, 100 is complete control)); 80% in assay [2] (Preemergence, visual injury rating after approximately 10 d, read-out: Ryegrass, Italian plant response rating (0 to 100 scale, 0 is no effect, 100 is complete control)); 40% in assay [3] (Preemergence, visual injury rating after approximately 10 d, read-out: Pigweed plant response rating (0 to 100 scale, 0 is no effect, 100 is complete control)); 0% in [4] (Preemergence, visual injury rating after approximately 10 d, read-out: Ragweed plant response rating (0 to 100 scale, 0 is no effect, 100 is complete control)); 90% in [5] (Preemergence, visual injury rating after approximately 10 d, read-out: Barnyardgrass plant response rating (0 to 100 scale, 0 is no effect, 100 is complete control)); 0% in the assay with Kochia (Kochia scoparia) (Preemergence, visual injury rating after approximately 10 d, read-out: Kochia plant response rating (0 to 100 scale, 0 is no effect, 100 is complete control)). Besides, the pest or weed control at 125 g/ha was determined as 60% in [9] (Postemergence, visual injury after approximately 10 d, 0 to 100 scale where 0 is no effect and 100 is complete control, read-out: Plant response rating, Galium); 0% in assay [10] (Postemergence, visual injury after approximately 10 d, 0 to 100 scale where 0 is no effect and 100 is complete control, read-out: Plant response rating, Ragweed); 90% in assay [11] (Postemergence, visual injury after approximately 10 d, 0 to 100 scale where 0 is no effect and 100 is complete control, read-out: Plant response rating, Barnyardgrass). In addition, the pest or weed control at 500 g/ha stood at 90% in assay [1] (preemergence, visual injury rating about 10 d after treatment, 0 to 100 scale (0 no effect, 100 complete control), read-out: Foxtail, Giant plant response rating); 90% in assay [2] (preemergence, visual injury rating about 10 d after treatment, 0 to 100 scale (0 no effect, 100 complete control), read-out: Ryegrass, Italian plant response rating); 80% in [3] (preemergence, visual injury rating about 10 d after treatment, 0 to 100 scale (0 no effect, 100 complete control), read-out: Pigweed plant response rating); 60% in assay [4] (preemergence, visual injury rating about 10 d after treatment, 0 to 100 scale (0 no effect, 100 complete control), read-out: Ragweed plant response rating); 90% in [5] (preemergence, visual injury rating about 10 d after treatment, 0 to 100 scale (0 no effect, 100 complete control), read-out: Barnyardgrass plant response rating); 50% with Kochia (Kochia scoparia) (preemergence, visual injury rating about 10 d after treatment, 0 to 100 scale (0 no effect, 100 complete control), read-out: Kochia plant response rating). Moreover, the pest or weed control at 250 g/ha with rice (Oryra sativa) was 40%; in [6] it was 85%; in [7], 70%; in assay [8] (0 to 100 scale where 0 is no effect and 100 is complete control) it was 60%. In the assay on corn (Zea mays) (Postemergence, visual injury after approximately 10 d, 0 to 100 scale where 0 is no effect and 100 is complete control), the Corn plant response rating (crop injury, 0 = no effect, 100 = complete kill) at 125 g/ha is 80%.
